≈ marks a conversion by molar mass, not a printed value. Entries after “also recorded” stand apart in the source; their conditions may differ. Like-named read-outs stand apart in the source and are kept apart here.
Columns and labels:
[1] = in words, cited from earlier work
[2] = Solubility of cladribine in water at various HPCD concentrations (HPLC); assay type: physicochemical; settings: for solubility at 120 h: pH 7.3
Description: The cylodextrin and the buffer salts were solved in Water for Injection and an excess of Cladribine was added. The solution was shaken during 5 days at room temperature and 4° C. The solution was filtered through a 0.2 μm filter.
The solubility of cladribine in water at various concentrations of 2-Hydroxypropyl-β-Cyclodextrin (HPCD) was measured by high performance liquid chromatography. […] Table 2 sets forth the results of the solubility measurements for the HPCD/cladribine formulation of Example 1.

[3] = as above; assay type: physicochemical; settings: no HPCD, temperature not stated, read-out: normal solubility of cladribine in water
[4] = Stability of cladribine with/without HPCD at pH 1.4 and 8.2 at room temperature; assay type: physicochemical
Description: The effect of the HPCD on the stability of cladribine at pH 1.4 and 8.2 at room temperature was measured.

Compound: Nc1nc(Cl)nc2c1ncn2[C@H]1C[C@H](O)[C@@H](CO)O1 [Cladribine, 2-chloro-2'-deoxyadenosine]
- stability in acid ([1]; acidic environment of the gastro-intestinal system): acid labile
- stability in simple saline solutions ([1]; simple saline): limited stability
- solubility in water ([1]; water): slightly soluble
- solubility at 120 h ([2]; 10% hp-β-cd in buffered water, pH 7.3, 4° C., 10% HP-β-CD (W/W), read-out: Solubility of Cladribine at 4° C.): 4.93 mg/mL (≈ 17.3 mM)
- solubility at 120 h ([2]; 10% hp-β-cd in buffered water, pH 7.3, RT, 10% HP-β-CD (W/W), read-out: Solubility of Cladribine (mg/ml) at RT): 6.4 mg/mL (≈ 22.4 mM)
- solubility at 120 h ([2]; 15% hp-β-cd in buffered water, pH 7.3, 4° C., 15% HP-β-CD (W/W), read-out: Solubility of Cladribine at 4° C.): 6.51 mg/mL (≈ 22.8 mM)
- solubility at 120 h ([2]; 15% hp-β-cd in buffered water, pH 7.3, RT, 15% HP-β-CD (W/W), read-out: Solubility of Cladribine (mg/ml) at RT): 8.47 mg/mL (≈ 29.6 mM)
- solubility at 120 h ([2]; 20% hp-β-cd in buffered water, pH 7.3, 4° C., 20% HP-β-CD (W/W), read-out: Solubility of Cladribine at 4° C.): 8.27 mg/mL (≈ 28.9 mM)
- solubility at 120 h ([2]; 20% hp-β-cd in buffered water, pH 7.3, RT, 20% HP-β-CD (W/W), read-out: Solubility of Cladribine (mg/ml) at RT): 10.5 mg/mL (≈ 36.7 mM)
- solubility at 120 h ([2]; 25% hp-β-cd in buffered water, pH 7.3, 4° C., 25% HP-β-CD (W/W), read-out: Solubility of Cladribine at 4° C.): 9.91 mg/mL (≈ 34.7 mM)
- solubility at 120 h ([2]; 25% hp-β-cd in buffered water, pH 7.3, RT, 25% HP-β-CD (W/W), read-out: Solubility of Cladribine (mg/ml) at RT): 12.4 mg/mL (≈ 43.3 mM)
- solubility of cladribine in water through use of the cyclodextrin formulation ([2]; with cyclodextrin, in words): significantly enhanced; also recorded: greatly increased
- solubility [3]: ~4520 µg/mL (≈ 15.8 mM)
- stability against hydrolysis when combined with cyclodextrins ([4]; combined with cyclodextrins, in words): significantly more stable
- stability at lower pH when combined with cyclodextrins like HPCD ([4]; lower pH, with cyclodextrins like HPCD): significantly more stable
- stability at pH 1.4 ([4]; pH 1.4, room temperature, with HPCD versus cladribine solution without HPCD (FIG. 1)): significantly enhanced

— patent US6194395A, “Cyclodextrin cladribine formulations” (Orthro-McNeil Pharmaceutical, Inc., priority 1999, dated 2001)
